Measured values from patent US7955847B2, “Method for enhancing leukocyte immune function” (priority 2004, dated 2011).

Test system: leukocyte NADPH oxidase (cytochrome b558)
Test: Cell surface expression of cytochrome b558 (NADPH oxidase) by flow cytometry with antibody 7D5
Assay type: cell-based, human
Settings: leukocytes from X91-CGD patient; 2 hrs treatment; anti-cytochrome b558 antibody 7D5, flow cytometry
Method: Blood samples with EDTA were obtained from patients with X91-chronic granulomatous disease. The samples were water bathed at 37° C. in a lysate buffer containing ammonium chloride, sodium carbonate and EDTA for several minutes to lyze residual red blood cells. The samples were then added with a suspension buffer containing globulin and EDTA to wash and remove the residual lysate buffer. The leukocytes were collected by centrifugation and counted.
Total leukocytes were maintained in RPMI 1640 medium supplemented with 10% heat-inactivated FBS at 37° C. under a humidified atmosphere (5% CO2+95% air). The leukocytes were seeded at a density of 3 to 5×10^5/ml and grown for 2 hrs in the presence or absence of 100 nM cofactor FAD and/or thapsigargin (100 nM or 1 μM). The cells were then cultured in 10% RPMI to recover for 1 hr prior to the following experiments.
To test whether the treatment with thapsigargin or cofactor FAD alone or in combination has effects on the cell surface expression of leukocyte NADPH oxidase, the cell surface expressions of cytochrome b558 in leukocytes with or without desired treatment were assayed. Leukocytes were prepared as illustrated in Example 1. The leukocytes, at the concentration of 5×10^5 cells/ml, were incubated with anticytochrome b558 monoclonal antibody (7D5) at 4° C. for 30 min, followed by incubation with FITC-labeled goat anti-mouse IgG for 40 min.

Structure (SMILES)	cell surface NADPH oxidase expression
C/C=C(/C)C(=O)O[C@H]1C(C)=C2[C@H]([C@@H]1OC(=O)CCCCCCC)[C@@](C)(OC(C)=O)C[C@H](OC(=O)CCC)[C@@]1(O)[C@H]2OC(=O)[C@@]1(C)O [thapsigargin]	slightly enhanced
Cc1cc2nc3c(=O)[nH]c(=O)nc-3n(C[C@H](O)[C@H](O)[C@H](O)COP(=O)(O)OP(=O)(O)OC[C@H]3O[C@@H](n4cnc5c(N)ncnc54)[C@H](O)[C@@H]3O)c2cc1C [cofactor FAD, flavin adenine dinucleotide]	slightly enhanced
